Laboratory results as given in EP2818472A1, “Imidazo[4,5-c]pyridine and pyrrolo[3,2-c]pyridine compounds as G-protein-coupled receptor kinase 5 (GRK5) modulators” (Max-Planck-Gesellschaft zur Förderung der Wissenschaften …, priority 2013, dated 2014).

System: beta-TC6 cells
Assay: Insulin HTRF assay (relative activity Ar) in beta-TC6 cells
Assay type: cell-based, mouse
Details: Mus musculus, Beta-TC6, 4 h, insulin HTRF, supernatant of beta-TC6 cells, incubation with test compound at 37°C for 2, 3, 4h; read-out: Ar (relative activity)
Summary of the method: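 beta-TC6 cells (15k/well, seeded 24 or 48 h) washed, then exposed to compound in induction buffer (0.5% DMSO final) for 2, 3 or 4 h at 37°C.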

| Compound | Emax [%] |
| --- | --- |
| COc1ccc(Nc2cc3[nH]c(-c4ccccn4)cc3cn2)cc1 [Compound 65, N-(4-methoxyphenyl)-2-(2-pyridyl)-1H-pyrrolo[3,2-c]pyridin-6-amine] | > 100 |
| FC(F)(F)c1cccc(Nc2cc3[nH]c(-c4ccccn4)cc3cn2)c1 [Compound 66, 2-(2-pyridyl)-N-[3-(trifluoromethyl)phenyl]-1H-pyrrolo[3,2-c]pyridin-6-amine] | 30 to 50 |
| COC(=O)c1ccc(Nc2cc3[nH]c(-c4ccccn4)cc3cn2)cc1 [Compound 67, methyl 4-[[2-(2-pyridyl)-1H-pyrrolo[3,2-c]pyridin-6-yl]amino]benzoate] | 30 to 50 |
| N#Cc1ccc(Nc2cc3[nH]c(-c4ccccn4)cc3cn2)cc1 [Compound 68, 4-[[2-(2-pyridyl)-1H-pyrrolo[3,2-c]pyridin-6-yl]amino]benzonitrile] | 50 to 100 |
| FC(F)(F)Oc1cccc(Nc2cc3[nH]c(-c4ccccn4)cc3cn2)c1 [Compound 69, 2-(2-pyridyl)-N-[3-(trifluoromethoxy)phenyl]-1H-pyrrolo[3,2-c]pyridin-6-amine] | 30 to 50 |
| CN(C)C(=O)c1ccc(Nc2cc3[nH]c(-c4ccccn4)cc3cn2)cc1 [Compound 70, N,N-dimethyl-4-[[2-(2-pyridyl)-1H-pyrrolo[3,2-c]pyridin-6-yl]amino]benzamide] | > 100 |
| Fc1cccc(Nc2cc3[nH]c(-c4ccccn4)cc3cn2)c1 [Compound 71, N-(3-fluorophenyl)-2-(2-pyridyl)-1H-pyrrolo[3,2-c]pyridin-6-amine] | 50 to 100 |
| CS(=O)(=O)c1ccc(Nc2cc3[nH]c(-c4ccccn4)cc3cn2)cc1 [Compound 72, N-(4-methylsulfonylphenyl)-2-(2-pyridyl)-1H-pyrrolo[3,2-c]pyridin-6-amine] | > 100 |
| CC(C)Oc1cccc(Nc2cc3[nH]c(-c4ccccn4)cc3cn2)c1 [Compound 73, N-(3-isopropoxyphenyl)-2-(2-pyridyl)-1H-pyrrolo[3,2-c]pyridin-6-amine] | 50 to 100 |
| CC(=O)Nc1ccc(Nc2cc3[nH]c(-c4cccnc4)cc3cn2)cc1 [Compound 74, N-[4-[[2-(3-pyridyl)-1H-pyrrolo[3,2-c]pyridin-6-yl]amino]phenyl]acetamide] | > 100 |
| COc1ccc(Nc2cc3[nH]c(-c4cccnc4)cc3cn2)cn1 [Compound 75, N-(6-methoxy-3-pyridyl)-2-(3-pyridyl)-1H-pyrrolo[3,2-c]pyridin-6-amine] | > 100 |
| c1cncc(-c2cc3cnc(Nc4ccncc4)cc3[nH]2)c1 [Compound 76, 2-(3-pyridyl)-N-(4-pyridyl)-1H-pyrrolo[3,2-c]pyridin-6-amine] | 30 to 50 |
| c1cncc(-c2cc3cnc(N4CCOCC4)cc3[nH]2)c1 [Compound 77, 4-[2-(3-pyridyl)-1H-pyrrolo[3,2-c]pyridin-6-yl]morpholine] | 50 to 100 |
| Clc1ccccc1Nc1cc2[nH]c(-c3cccnc3)cc2cn1 [Compound 78, N-(2-chlorophenyl)-2-(3-pyridyl)-1H-pyrrolo[3,2-c]pyridin-6-amine] | 50 to 100 |
| Fc1ccc(C(F)(F)F)cc1Nc1cc2[nH]c(-c3cccnc3)cc2cn1 [Compound 79, N-[2-fluoro-5-(trifluoromethyl)phenyl]-2-(3-pyridyl)-1H-pyrrolo[3,2-c]pyridin-6-amine] | 30 to 50 |
| CC(=O)Nc1cccc(Nc2cc3[nH]c(-c4cccnc4)cc3cn2)c1 [Compound 80, N-[3-[[2-(3-pyridyl)-1H-pyrrolo[3,2-c]pyridin-6-yl]amino]phenyl]acetamide] | > 100 |
| CC(C)Oc1ccc(Nc2cc3[nH]c(-c4cccnc4)cc3cn2)cc1 [Compound 81, N-(4-isopropoxyphenyl)-2-(3-pyridyl)-1H-pyrrolo[3,2-c]pyridin-6-amine] | 30 to 50 |
| COc1cc(Nc2cc3c(cn2)cc(-c2cccnc2)n3C)cc(OC)c1OC [Compound 82, 1-methyl-2-(3-pyridyl)-N-(3,4,5-trimethoxyphenyl)pyrrolo[3,2-c]pyridin-6-amine] | 50 to 100 |
